ChEMBL document CHEMBL6153110, “Peptide Double-Stapling and Arginine N-Glycosylation Triggered the Development of Therapeutic Antimicrobial Peptides Capable of Killing Drug-Resistant Bacteria in Mice” (J Med Chem, 2025)
≈ marks a conversion by molar mass, not a printed value. Positions of bridges follow the written chain, without caps; N, C: chain ends. Non-standard residues stand in square brackets, D forms with d. Residues, ends and D or L forms follow the SMILES beside them. R8 = C=CCCCCCC[C@@](C)(N)C(=O)O; S5 = C=CCCC[C@](C)(N)C(=O)O; Abu = CC[C@H](N)C(=O)O

Experiments:
Format in all cases: functional
[1] = system: Klebsiella pneumoniae; assay: Antimicrobial activity against Klebsiella pneumoniae ATCC 13883 assessed as growth inhibition measured after 8 hrs incubation by standard broth dilution assay
[2] = system: Staphylococcus aureus; assay: Antimicrobial activity against methicillin-resistant Staphylococcus aureus ATCC 43300 assessed as growth inhibition measured after 8 hrs incubation by standard broth dilution assay
[3] = system: Pseudomonas aeruginosa; assay: Antimicrobial activity against Pseudomonas aeruginosa ATCC 27853 assessed as growth inhibition measured after 8 hrs incubation by standard broth dilution assay
[4] = system: Streptococcus pneumoniae; assay: Antimicrobial activity against Streptococcus pneumoniae ATCC 49619 assessed as growth inhibition measured after 8 hrs incubation by standard broth dilution assay

Structure (SMILES) | MIC [1] [µg/mL] | MIC [2] [µg/mL] | MIC [3] [µg/mL] | MIC [4] [µg/mL]
CC[C@@H]1NC(=O)[C@H](Cc2ccccc2)NC(=O)[C@H](C(C)C)NC(=O)[C@@](C)(NC(=O)[C@H](CCCCN)NC(=O)[C@H](Cc2c[nH]c3ccccc23)NC(=O)[C@@H](NC(=O)[C@H](CCCNC(=N)N)NC(=O)[C@H](CCCCN)NC(=O)[C@H](CC(C)C)NC(C)=O)C(C)C)CCC/C=C\CCC[C@@](C)(C(=O)N[C@@H](CC(C)C)C(=O)N[C@@H](CCCCN)C(=O)N[C@@H](CCCNC(=N)N)C(=O)N[C@@H](Cc2ccc(O)cc2)C(=O)N[C@@H](Cc2c[nH]c3ccccc23)C(=O)N[C@@H](CCCNC(=N)N)C(=O)N[C@@H](CCC(N)=O)C(=O)N[C@@H](CC(C)C)C(=O)N[C@@H](CCCCN)C(=O)N[C@@H](CCCCN)C(=O)N2CCC[C@H]2C(=O)N[C@H](C(=O)N[C@@H](CCCNC(=N)N)C(N)=O)C(C)C)NC1=O (Ac-LKRVWK[S5]VF[Abu][S5]LKRYWRQLKKPVR-NH2; staple (Z) 7-11) | 4.9 (≈ 1.53 µM) | 2.5 (≈ 0.78 µM) | 5 (≈ 1.56 µM) | 19 (≈ 5.93 µM)
CC(=O)N[C@@H](CC(C)C)C(=O)N[C@@H](CCCCN)C(=O)N[C@@H](CCCNC(=N)N)C(=O)N[C@H](C(=O)N[C@@H](Cc1c[nH]c2ccccc12)C(=O)N[C@@H](CCCCN)C(=O)N[C@@H](CCCNC(=N)N)C(=O)N[C@H](C(=O)N[C@@H](Cc1ccccc1)C(=O)N[C@@H](CCCCN)C(=O)N[C@]1(C)CCCCCC/C=C\CCC[C@@](C)(C(=O)N[C@@H](CC(C)C)C(=O)N[C@@H](CCCCN)C(=O)N[C@@H](CCCCN)C(=O)N2CCC[C@H]2C(=O)N[C@H](C(=O)N[C@@H](CCCNC(=N)N)C(N)=O)C(C)C)NC(=O)[C@H](CCCNC(=N)N)NC(=O)[C@H](Cc2c[nH]c3ccccc23)NC(=O)[C@H](Cc2ccc(O)cc2)NC(=O)[C@H](CCCNC(=N)N)NC(=O)[C@H](CCCCN)NC(=O)[C@H](CC(C)C)NC1=O)C(C)C)C(C)C (Ac-LKRVWKRVFK[R8]LKRYWR[S5]LKKPVR-NH2; staple (Z) 11-18) | 4.9 (≈ 1.48 µM) | 9.7 (≈ 2.92 µM) | 5 (≈ 1.51 µM) | 37.7 (≈ 11.4 µM)
CC(=O)N[C@@H](CC(C)C)C(=O)N[C@@H](CCCCN)C(=O)N[C@@H](CCCNC(=N)N)C(=O)N[C@H](C(=O)N[C@@]1(C)CCC/C=C\CCC[C@@](C)(C(=O)N[C@@H](CCCCN)C(=O)N[C@@H](CC(C)C)C(=O)N[C@@H](CC(C)C)C(=O)N[C@@H](CCCCN)C(=O)N[C@@H](CCCNC(=N)N)C(=O)N[C@@H](Cc2ccc(O)cc2)C(=O)N[C@@H](Cc2c[nH]c3ccccc23)C(=O)N[C@@H](CCCNC(=N)N)C(=O)N[C@@H](CCC(N)=O)C(=O)N[C@@H](CC(C)C)C(=O)N[C@@H](CCCCN)C(=O)N[C@@H](CCCCN)C(=O)N2CCC[C@H]2C(=O)N[C@H](C(=O)N[C@@H](CCCNC(=N)N)C(N)=O)C(C)C)NC(=O)[C@H](C(C)C)NC(=O)[C@H](CCCNC(=N)N)NC(=O)[C@H](CCCCN)NC1=O)C(C)C (Ac-LKRV[S5]KRV[S5]KLLKRYWRQLKKPVR-NH2; staple (Z) 5-9) | 38 (≈ 11.9 µM) | 2.5 (≈ 0.785 µM) | 2.6 (≈ 0.817 µM) | 37.7 (≈ 11.8 µM)
CC(=O)N[C@@H](CC(C)C)C(=O)N[C@@H](CCCCN)C(=O)N[C@@H](CCCNC(=N)N)C(=O)N[C@H](C(=O)N[C@@H](Cc1c[nH]c2ccccc12)C(=O)N[C@@H](CCCCN)C(=O)N[C@@H](CCCNC(=N)N)C(=O)N[C@H](C(=O)N[C@@H](Cc1ccccc1)C(=O)N[C@@H](CCCCN)C(=O)N[C@@H](CC(C)C)C(=O)N[C@@H](CC(C)C)C(=O)N[C@@H](CCCCN)C(=O)N[C@@H](CCCNC(=N)N)C(=O)N[C@@]1(C)CCC/C=C\CCC[C@@](C)(C(=O)N[C@@H](CCCCN)C(=O)N[C@@H](CCCCN)C(=O)N2CCC[C@H]2C(=O)N[C@H](C(=O)N[C@@H](CCCNC(=N)N)C(N)=O)C(C)C)NC(=O)[C@H](CCC(N)=O)NC(=O)[C@H](CCCNC(=N)N)NC(=O)[C@H](Cc2c[nH]c3ccccc23)NC1=O)C(C)C)C(C)C (Ac-LKRVWKRVFKLLKR[S5]WRQ[S5]KKPVR-NH2; staple (Z) 15-19) | 38 (≈ 11.7 µM) | 19.1 (≈ 5.89 µM) | 9.9 (≈ 3.05 µM) | 37.7 (≈ 11.6 µM)
CC(=O)N[C@@H](CC(C)C)C(=O)N[C@@H](CCCCN)C(=O)N[C@@H](CCCNC(=N)N)C(=O)N[C@@]1(C)CCC/C=C\CCC[C@@](C)(C(=O)N[C@@H](Cc2ccccc2)C(=O)N[C@@H](CCCCN)C(=O)N[C@@H](CC(C)C)C(=O)N[C@@H](CC(C)C)C(=O)N[C@@H](CCCCN)C(=O)N[C@@H](CCCNC(=N)N)C(=O)N[C@@H](Cc2ccc(O)cc2)C(=O)N[C@@H](Cc2c[nH]c3ccccc23)C(=O)N[C@@H](CCCNC(=N)N)C(=O)N[C@@H](CCC(N)=O)C(=O)N[C@@H](CC(C)C)C(=O)N[C@@H](CCCCN)C(=O)N[C@@H](CCCCN)C(=O)N2CCC[C@H]2C(=O)N[C@H](C(=O)N[C@@H](CCCNC(=N)N)C(N)=O)C(C)C)NC(=O)[C@H](CCCNC(=N)N)NC(=O)[C@H](CCCCN)NC(=O)[C@H](Cc2c[nH]c3ccccc23)NC1=O (Ac-LKR[S5]WKR[S5]FKLLKRYWRQLKKPVR-NH2; staple (Z) 4-8) | 38 (≈ 11.4 µM) | 2.5 (≈ 0.753 µM) | 5 (≈ 1.51 µM) | 37.7 (≈ 11.4 µM)
CC(=O)N[C@@H](CC(C)C)C(=O)N[C@@H](CCCCN)C(=O)N[C@@H](CCCNC(=N)N)C(=O)N[C@H](C(=O)N[C@@H](Cc1c[nH]c2ccccc12)C(=O)N[C@@H](CCCCN)C(=O)N[C@@H](CCCNC(=N)N)C(=O)N[C@H](C(=O)N[C@@H](Cc1ccccc1)C(=O)N[C@@H](CCCCN)C(=O)N[C@@H](CC(C)C)C(=O)N[C@@H](CC(C)C)C(=O)N[C@@H](CCCCN)C(=O)N[C@@H](CCCNC(=N)N)C(=O)N[C@@H](Cc1ccc(O)cc1)C(=O)N[C@@H](Cc1c[nH]c2ccccc12)C(=O)N[C@@H](CCCNC(=N)N)C(=O)N[C@@H](CCC(N)=O)C(=O)N[C@@]1(C)CCC/C=C\CCC[C@@](C)(C(=O)N[C@@H](CCCNC(=N)N)C(N)=O)NC(=O)[C@@H]2CCCN2C(=O)[C@H](CCCCN)NC(=O)[C@H](CCCCN)NC1=O)C(C)C)C(C)C (Ac-LKRVWKRVFKLLKRYWRQ[S5]KKP[S5]R-NH2; staple (Z) 19-23) | 38 (≈ 11.5 µM) | 19.1 (≈ 5.78 µM) | 5 (≈ 1.51 µM) | 9.6 (≈ 2.9 µM)
CC(=O)N[C@@H](CC(C)C)C(=O)N[C@@H](CCCCN)C(=O)N[C@@H](CCCNC(=N)N)C(=O)N[C@H](C(=O)N[C@@H](Cc1c[nH]c2ccccc12)C(=O)N[C@@H](CCCCN)C(=O)N[C@@H](CCCNC(=N)N)C(=O)N[C@H](C(=O)N[C@@H](Cc1ccccc1)C(=O)N[C@@H](CCCCN)C(=O)N[C@@]1(C)CCC/C=C\CCC[C@@](C)(C(=O)N[C@@H](Cc2c[nH]c3ccccc23)C(=O)N[C@@H](CCCNC(=N)N)C(=O)N[C@@H](CCC(N)=O)C(=O)N[C@@H](CC(C)C)C(=O)N[C@@H](CCCCN)C(=O)N[C@@H](CCCCN)C(=O)N2CCC[C@H]2C(=O)N[C@H](C(=O)N[C@@H](CCCNC(=N)N)C(N)=O)C(C)C)NC(=O)[C@H](CCCNC(=N)N)NC(=O)[C@H](CCCCN)NC(=O)[C@H](CC(C)C)NC1=O)C(C)C)C(C)C (Ac-LKRVWKRVFK[S5]LKR[S5]WRQLKKPVR-NH2; staple (Z) 11-15) | 38 (≈ 11.7 µM) | 2.5 (≈ 0.771 µM) | 38.1 (≈ 11.8 µM) | 37.7 (≈ 11.6 µM)
CC(=O)N[C@@H](CC(C)C)C(=O)N[C@@H](CCCCN)C(=O)N[C@@H](CCCNC(=N)N)C(=O)N[C@H](C(=O)N[C@@H](Cc1c[nH]c2ccccc12)C(=O)N[C@@H](CCCCN)C(=O)N[C@@H](CCCNC(=N)N)C(=O)N[C@H](C(=O)N[C@@H](Cc1ccccc1)C(=O)N[C@@H](CCCCN)C(=O)N[C@@H](CC(C)C)C(=O)N[C@@H](CC(C)C)C(=O)N[C@@H](CCCCN)C(=O)N[C@@H](CCCNC(=N)N)C(=O)N[C@@H](Cc1ccc(O)cc1)C(=O)N[C@@]1(C)CCC/C=C\CCC[C@@](C)(C(=O)N[C@@H](CCCCN)C(=O)N2CCC[C@H]2C(=O)N[C@H](C(=O)N[C@@H](CCCNC(=N)N)C(N)=O)C(C)C)NC(=O)[C@H](CC(C)C)NC(=O)[C@H](CCC(N)=O)NC(=O)[C@H](CCCNC(=N)N)NC1=O)C(C)C)C(C)C (Ac-LKRVWKRVFKLLKRY[S5]RQL[S5]KPVR-NH2; staple (Z) 16-20) | 38 (≈ 11.9 µM) | 2.5 (≈ 0.78 µM) | 5 (≈ 1.56 µM) | 19 (≈ 5.93 µM)
CC(=O)N[C@@H](CC(C)C)C(=O)N[C@@H](CCCCN)C(=O)N[C@@H](CCCNC(=N)N)C(=O)N[C@H](C(=O)N[C@@H](Cc1c[nH]c2ccccc12)C(=O)N[C@@H](CCCCN)C(=O)N[C@@H](CCCNC(=N)N)C(=O)N[C@H](C(=O)N[C@]1(C)CCCCCC/C=C\CCC[C@@](C)(C(=O)N[C@@H](CCCNC(=N)N)C(=O)N[C@@H](CCC(N)=O)C(=O)N[C@@H](CC(C)C)C(=O)N[C@@H](CCCCN)C(=O)N[C@@H](CCCCN)C(=O)N2CCC[C@H]2C(=O)N[C@H](C(=O)N[C@@H](CCCNC(=N)N)C(N)=O)C(C)C)NC(=O)[C@H](Cc2ccc(O)cc2)NC(=O)[C@H](CCCNC(=N)N)NC(=O)[C@H](CCCCN)NC(=O)[C@H](CC(C)C)NC(=O)[C@H](CC(C)C)NC(=O)[C@H](CCCCN)NC1=O)C(C)C)C(C)C (Ac-LKRVWKRV[R8]KLLKRY[S5]RQLKKPVR-NH2; staple (Z) 9-16) | 38 (≈ 11.8 µM) | 9.7 (≈ 3.01 µM) | 38 (≈ 11.8 µM) | 9.6 (≈ 2.98 µM)
CC(=O)N[C@@H](CC(C)C)C(=O)N[C@@H](CCCCN)C(=O)N[C@@H](CCCNC(=N)N)C(=O)N[C@H](C(=O)N[C@@H](Cc1c[nH]c2ccccc12)C(=O)N[C@@H](CCCCN)C(=O)N[C@@H](CCCNC(=N)N)C(=O)N[C@H](C(=O)N[C@@H](Cc1ccccc1)C(=O)N[C@@H](CCCCN)C(=O)N[C@@H](CC(C)C)C(=O)N[C@@H](CC(C)C)C(=O)N[C@@H](CCCCN)C(=O)N[C@@H](CCCNC(=N)N)C(=O)N[C@@H](Cc1ccc(O)cc1)C(=O)N[C@]1(C)CCCCCC/C=C\CCC[C@@](C)(C(=O)N[C@@H](CCCNC(=N)N)C(N)=O)NC(=O)[C@@H]2CCCN2C(=O)[C@H](CCCCN)NC(=O)[C@H](CCCCN)NC(=O)[C@H](CC(C)C)NC(=O)[C@H](CCC(N)=O)NC(=O)[C@H](CCCNC(=N)N)NC1=O)C(C)C)C(C)C (Ac-LKRVWKRVFKLLKRY[R8]RQLKKP[S5]R-NH2; staple (Z) 16-23) | 2.5 (≈ 0.764 µM) | 9.7 (≈ 2.96 µM) | 2.6 (≈ 0.794 µM) | 19 (≈ 5.8 µM)
